Where a name gives a salt, the structure may show the parent alone.

The experiment concerns the target T1, human GlyT1c transporter (Homo sapiens, UniProt P48067).
T1 construct: expressed in transfected cells; host or cells: CHO cells (recombinant; membranes)
T1 sequence (P48067 1-706): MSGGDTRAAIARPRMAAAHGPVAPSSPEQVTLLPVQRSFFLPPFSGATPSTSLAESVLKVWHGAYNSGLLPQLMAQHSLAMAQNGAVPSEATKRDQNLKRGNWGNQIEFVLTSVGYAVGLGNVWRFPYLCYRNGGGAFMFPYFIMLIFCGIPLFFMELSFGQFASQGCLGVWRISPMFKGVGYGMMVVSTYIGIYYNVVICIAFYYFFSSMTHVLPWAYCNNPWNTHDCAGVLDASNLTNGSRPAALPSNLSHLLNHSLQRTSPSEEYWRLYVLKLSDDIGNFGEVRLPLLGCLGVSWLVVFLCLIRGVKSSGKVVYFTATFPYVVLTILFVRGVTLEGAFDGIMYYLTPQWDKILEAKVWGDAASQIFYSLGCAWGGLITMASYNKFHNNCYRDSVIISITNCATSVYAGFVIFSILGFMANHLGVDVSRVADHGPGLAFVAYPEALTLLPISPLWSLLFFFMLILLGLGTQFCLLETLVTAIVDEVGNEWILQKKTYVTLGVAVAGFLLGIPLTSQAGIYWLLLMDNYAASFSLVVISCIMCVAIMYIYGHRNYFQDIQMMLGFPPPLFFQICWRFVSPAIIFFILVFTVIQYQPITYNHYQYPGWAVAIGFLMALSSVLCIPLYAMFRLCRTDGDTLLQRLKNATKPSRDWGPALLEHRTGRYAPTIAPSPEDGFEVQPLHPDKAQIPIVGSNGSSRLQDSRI
The experiment in a line: Radioligand binding assay using recombinant CHO cell membranes expressing human GlyT1. To be noted: values given as bounds, read-out: radioligand binding K^iapp. On the procedure: Radioligand binding to human GlyT1c transporter-expressing membranes was carried out as described in Mezler et al., Molecular Pharmacology 74:1705-1715, 2008.
`NCCn1cc2c(n1)C(C1(c3ccc(Cl)cc3)CCC1)NCC2` (stereo not drawn) [Example 6, 2-(7-(1-(4-Chlorophenyl)cyclobutyl)-4,5,6,7-tetrahydro-2H-pyrazolo[3,4-c]pyridin-2-yl)ethanamine dihydrochloride]: the Ki was at least 10000 nM.
Next, `CCCS(=O)(=O)NCCn1ncc2c1C(C1(c3ccc(Cl)cc3)CCC1)NCC2` (stereo not drawn) [Example 7.1, N-(2-(7-(1-(4-Chlorophenyl)cyclobutyl)-4,5,6,7-tetrahydro-1H-pyrazolo[3,4-c]pyridin-1-yl)ethyl)propane-1-sulfonamide hydrochloride]: at most 1000 nM; `Cn1cc(S(=O)(=O)NCCn2ncc3c2C(C2(c4ccc(Cl)cc4)CCC2)NCC3)cn1` (stereo not drawn) [Example 7.2, N-(2-(7-(1-(4-Chlorophenyl)cyclobutyl)-4,5,6,7-tetrahydro-1H-pyrazolo[3,4-c]pyridin-1-yl)ethyl)-1-methyl-1H-pyrazole-4-sulfonamide hydrochloride]: at most 10000 nM.
In the case of `O=S(=O)(CCCF)NCCn1ncc2c1C(C1(c3ccc(Cl)cc3)CCC1)NCC2` (stereo not drawn) [Example 7.3, N-(2-(7-(1-(4-Chlorophenyl)cyclobutyl)-4,5,6,7-tetrahydro-1H-pyrazolo[3,4-c]pyridin-1-yl)ethyl)-3-fluoropropane-1-sulfonamide hydrochloride], the Ki is at most 1000 nM.
The same measure for `Cn1cnc(S(=O)(=O)NCCn2ncc3c2C(C2(c4ccc(Cl)cc4)CCC2)NCC3)c1` (stereo not drawn) [Example 7.4, N-(2-(7-(1-(4-Chlorophenyl)cyclobutyl)-4,5,6,7-tetrahydro-1H-pyrazolo[3,4-c]pyridin-1-yl)ethyl)-1-methyl-1H-imidazole-4-sulfonamide hydrochloride]: at most 1000 nM; for `CCCS(=O)(=O)NCc1ncc2c(n1)C(C1(c3ccc(Cl)cc3)CCC1)NCC2` (stereo not drawn) [Example 8.1, N-((8-(1-(4-Chlorophenyl)cyclobutyl)-5,6,7,8-tetrahydropyrido[3,4-d]pyrimidin-2-yl)methyl)propane-1-sulfonamide hydrochloride]: at most 1000 nM.
Take `O=S(=O)(CC1CC1)NCc1ncc2c(n1)C(C1(c3ccc(Cl)cc3)CCC1)NCC2` (stereo not drawn) [Example 8.2, N-((8-(1-(4-Chlorophenyl)cyclobutyl)-5,6,7,8-tetrahydropyrido[3,4-d]pyrimidin-2-yl)methyl)-1-cyclopropylmethanesulfonamide hydrochloride]: the Ki was at most 1000 nM.
On to `Cn1cc(S(=O)(=O)NCc2ncc3c(n2)C(C2(c4ccc(Cl)cc4)CCC2)NCC3)cn1` (stereo not drawn) [Example 8.3, N-((8-(1-(4-Chlorophenyl)cyclobutyl)-5,6,7,8-tetrahydropyrido[3,4-d]pyrimidin-2-yl)methyl)-1-methyl-1H-pyrazole-4-sulfonamide hydrochloride], for which the Ki is at most 1000 nM.
Take `Cn1cnc(S(=O)(=O)NCc2ncc3c(n2)C(C2(c4ccc(Cl)cc4)CCC2)NCC3)c1` (stereo not drawn) [Example 8.4, N-((8-(1-(4-Chlorophenyl)cyclobutyl)-5,6,7,8-tetrahydropyrido[3,4-d]pyrimidin-2-yl)methyl)-1-methyl-1H-imidazole-4-sulfonamide hydrochloride]: the Ki was at most 1000 nM.
The same measure for `O=S(=O)(CCCF)NCc1ncc2c(n1)C(C1(c3ccc(Cl)cc3)CCC1)NCC2` (stereo not drawn) [Example 8.5, N-((8-(1-(4-Chlorophenyl)cyclobutyl)-5,6,7,8-tetrahydropyrido[3,4-d]pyrimidin-2-yl)methyl)-3-fluoropropane-1-sulfonamide hydrochloride]: at most 1000 nM; for `CCCS(=O)(=O)NCCn1cc2c(n1)C(C1(c3ccc(Cl)cc3)CCC1)NCC2` (stereo not drawn) [Example 9.1, N-(2-(7-(1-(4-Chlorophenyl)cyclobutyl)-4,5,6,7-tetrahydro-2H-pyrazolo[3,4-c]pyridin-2-yl)ethyl)propane-1-sulfonamide hydrochloride]: at most 1000 nM.
As to `CCS(=O)(=O)NCCn1cc2c(n1)C(C1(c3ccc(Cl)cc3)CCC1)NCC2` (stereo not drawn) [Example 9.2, N-(2-(7-(1-(4-Chlorophenyl)cyclobutyl)-4,5,6,7-tetrahydro-2H-pyrazolo[3,4-c]pyridin-2-yl)ethyl)ethanesulfonamide hydrochloride], the Ki is at most 10000 nM.
Next, `CS(=O)(=O)NCCn1cc2c(n1)C(C1(c3ccc(Cl)cc3)CCC1)NCC2` (stereo not drawn) [Example 9.3, N-(2-(7-(1-(4-Chlorophenyl)cyclobutyl)-4,5,6,7-tetrahydro-2H-pyrazolo[3,4-c]pyridin-2-yl)ethyl)methanesulfonamide hydrochloride]: at most 1000 nM; `O=S(=O)(NCCn1cc2c(n1)C(C1(c3ccc(Cl)cc3)CCC1)NCC2)c1ccccc1` (stereo not drawn) [Example 9.4, N-(2-(7-(1-(4-Chlorophenyl)cyclobutyl)-4,5,6,7-tetrahydro-2H-pyrazolo[3,4-c]pyridin-2-yl)ethyl)benzenesulfonamide hydrochloride]: at most 1000 nM; `CCCCS(=O)(=O)NCCn1cc2c(n1)C(C1(c3ccc(Cl)cc3)CCC1)NCC2` (stereo not drawn) [Example 9.5, N-(2-(7-(1-(4-Chlorophenyl)cyclobutyl)-4,5,6,7-tetrahydro-2H-pyrazolo[3,4-c]pyridin-2-yl)-ethyl)butane-1-sulfonamide hydrochloride]: at most 1000 nM.
The same measure for `Cn1cc(S(=O)(=O)NCCn2cc3c(n2)C(C2(c4ccc(Cl)cc4)CCC2)NCC3)cn1` (stereo not drawn) [Example 9.6, N-(2-(7-(1-(4-Chlorophenyl)cyclobutyl)-4,5,6,7-tetrahydro-2H-pyrazolo[3,4-c]pyridin-2-yl)-ethyl)-1-methyl-1H-pyrazole-4-sulfonamide hydrochloride]: at most 1000 nM.
The same measure for `Cn1cnc(S(=O)(=O)NCCn2cc3c(n2)C(C2(c4ccc(Cl)cc4)CCC2)NCC3)c1` (stereo not drawn) [Example 9.7, N-(2-(7-(1-(4-Chlorophenyl)cyclobutyl)-4,5,6,7-tetrahydro-2H-pyrazolo[3,4-c]pyridin-2-yl)ethyl)-1-methyl-1H-imidazole-4-sulfonamide hydrochloride]: at most 1000 nM; for `O=S(=O)(CCCF)NCCn1cc2c(n1)C(C1(c3ccc(Cl)cc3)CCC1)NCC2` (stereo not drawn) [Example 9.8, N-(2-(7-(1-(4-Chlorophenyl)cyclobutyl)-4,5,6,7-tetrahydro-2H-pyrazolo[3,4-c]pyridin-2-yl)ethyl)-3-fluoropropane-1-sulfonamide hydrochloride]: at most 1000 nM; for `O=S(=O)(NCCn1cc2c(n1)C(C1(c3ccc(Cl)cc3)CCC1)NCC2)C1CCC1` (stereo not drawn) [Example 9.9, N-(2-(7-(1-(4-Chlorophenyl)cyclobutyl)-4,5,6,7-tetrahydro-2H-pyrazolo[3,4-c]pyridin-2-yl)-ethyl)cyclobutanesulfonamide hydrochloride]: at most 1000 nM.
Consider `O=S(=O)(CC1CC1)NCCn1cc2c(n1)C(C1(c3ccc(Cl)cc3)CCC1)NCC2` (stereo not drawn) [Example 9.10, N-(2-(7-(1-(4-Chlorophenyl)cyclobutyl)-4,5,6,7-tetrahydro-2H-pyrazolo[3,4-c]pyridin-2-yl)-ethyl)-1-cyclopropylmethanesulfonamide hydrochloride], for which the Ki is at most 1000 nM.
Next, `CC(C)CS(=O)(=O)NCCn1cc2c(n1)C(C1(c3ccc(Cl)cc3)CCC1)NCC2` (stereo not drawn) [Example 9.11, N-(2-(7-(1-(4-chlorophenyl)cyclobutyl)-4,5,6,7-tetrahydro-2H-pyrazolo[3,4-c]pyridin-2-yl)ethyl)-2-methylpropane-1-sulfonamide hydrochloride]: at most 1000 nM; `O=S(=O)(NCCn1cc2c(n1)C(C1(c3ccc(Cl)cc3)CCC1)NCC2)c1cccnc1` (stereo not drawn) [Example 9.12, N-(2-(7-(1-(4-Chlorophenyl)cyclobutyl)-4,5,6,7-tetrahydro-2H-pyrazolo[3,4-c]pyridin-2-yl)ethyl)pyridine-3-sulfonamide dihydrochloride]: at most 1000 nM.
Next, `CCCS(=O)(=O)N(C)CCn1cc2c(n1)C(C1(c3ccc(Cl)cc3)CCC1)NCC2` (stereo not drawn) [Example 10, N-(2-(7-(1-(4-chlorophenyl)cyclobutyl)-4,5,6,7-tetrahydro-2H-pyrazolo[3,4-c]pyridin-2-yl)ethyl)-N-methylpropane-1-sulfonamide hydrochloride]: at most 1000 nM; `CCCS(=O)(=O)NCCn1c2c(c3ccccc31)CCNC2C1(c2ccc(Cl)cc2)CCC1` (stereo not drawn) [Example 11, N-(2-{1-[1-(4-Chlorophenyl)cyclobutyl]-1,2,3,4-tetrahydro-9H-b-carbolin-9-yl}ethyl)propane-1-sulfonamide]: at most 1000 nM.

These data come from patent US8642587B2, “Heterocyclic compounds, pharmaceutical compositions containing them, and their use in therapy” (AbbVie Deutschland GmbH & Co. KG, priority 2009, dated 2014).
